Measured values published in patent US6894068B2, “Substituted benzimidazoles as non-nucleoside inhibitors of reverse transcriptase” (The United States of America as represented by the …, priority 1997, dated 2005).
Where two headings read alike, the source gives them in different places.

Tests used:
HIV-1 WT RT = HIV-1 WT RT (Human immunodeficiency virus type 1 group M subtype B, UniProt P03366); experiment: biochemical; type: biochemical
HIV-1 WT virus (NL4-3) = experiment: microbe, parasite or virus in culture; type: cell-based; conditions: Human immunodeficiency virus 1, NL43, CEM-SS
Method in brief: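 CEM-SS cells (5×10^3/well) infected with HIV-1 NL4-3 at MOI giving complete killing by day 6 (e.g., 0.01-0.05), with half-log compound dilutions in triplicate. After six days at 37° C., viability measured by XTT reduction at 450 nm; CIC50 is 50% inhibitory concentration of cytopathic killing.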

HIV-1 isolate L74V = experiment: Cytopathic cell killing assay, MT-4 cells, isolate L74V; type: cell-based
Excerpt: (§1) The various HIV isolates tested in the Figures are those corresponding to wild-type virus (NL4-3) and the other strains listed by their RT mutations. The three 4×AZT isolates included in the Figures represent AZT drug-resistant variants. For example, the 4×AZT/L100I isolate has five mutations: four mutations confer increased resistance to AZT, and the other mutation is located within the NNRTI binding pocket. TZB and nevir. (nevirapine) are two well-known NNRTIs, included in this experiment for comparison purposes.
(§2) In this Example, the antiviral and cellular toxicity of NNRTIs was investigated, using the cytopathic cell killing assay described by Yang (Yang et al., “Characteristics of a Group of Non-nucleoside Reverse Transcriptase Inhibitors with Structural Diversity and Potent Anti-Human Immunodeficiency Virus Activity,” Leukemia 9:S75-S85 [1995]). Briefly, in this method cells (e.g., the CEM-SS cell line, available from the NIAID AIDS Research and Reference Program [ARRRP]) were seeded at a density of 5×10^3 cells/well, into the wells of a 96-well microtiter plate. The cells were then infected with HIV virus (either mutant or WT), at a multiplicity of infection (MOI) previously determined to provide complete cell killing by 6 days of culture post-infection (e.g., MOI of 0.01-0.05). Each of the HIV isolates was pre-titered to induce equivalent levels of infection based on cell killing or virus production, prior to their use in these assays. A range of test compound concentrations was added to the wells in triplicate (e.g., serial half-log dilutions) to evaluate inhibition of HIV infection. Controls for each assay included drug controls (drug colorimetric control wells), drug cytotoxicity control wells (cells with drug), virus control wells (cells with virus), and cell viability controls (cells only). Positive control drugs (e.g. AZT and ddC) were also run in parallel.
(§3) After six days of incubation at 37° C., cell viability was determined spectrophotometrically at 450 nm for each well, using the metabolic reduction of XTT to a soluble colored formazan. (See, Gartner and Popovic, “Virus Isolation and Production, in Aldovini and Walker (eds.), Techniques in HIV Research, Stockton Press, NY, pp. […] [1991]; and Nara and Fischinger, “Quantitative Infectivity Assay for HIV-1 and HIV-2, ” Nature 332:469-470 [1988]).
(§4) The in vitro therapeutic index (TI50) was defined as the fold-difference between the EC50 and IC50. The results for the various compounds are included in FIGS. 8 and 19.

HIV-1 isolate A98G = experiment: Cytopathic cell killing assay, MT-4 cells, isolate A98G; type: cell-based
Excerpt: as §1, §2, §3, §4

HIV-1 isolate K103N = experiment: Cytopathic cell killing assay, MT-4 cells, isolate K103N; type: cell-based
Excerpt: as §1, §2, §3, §4

HIV-1 isolate V108I = experiment: Cytopathic cell killing assay, MT-4 cells, isolate V108I; type: cell-based
Excerpt: as §1, §2, §3, §4

HIV-1 isolate Y181C = experiment: Cytopathic cell killing assay, MT-4 cells, isolate Y181C; type: cell-based
Excerpt: as §1, §2, §3, §4

[1] = Human immunodeficiency virus 1, MT4, read-out: EC50, isolate K103N, Table 8, MT-4 cells
[2] = Human immunodeficiency virus 1, MT4, read-out: EC50, isolate Y181C, Table 8, MT-4 cells

Structure (SMILES)	IC50 (HIV-1 WT RT)	inhibition at 1 µM (HIV-1 WT RT; Table 7, 1 μM drug, WT HIV-1 RT, read-out: % inhibn (1 μM))	EC50 (HIV-1 WT virus (NL4-3); Table 7, drug concentration required to reduce cell killing or virus production by 50%, WT, read-out: EC50)	EC50 (HIV-1 isolate L74V; Human immunodeficiency virus 1, MT4, read-out: EC50, isolate L74V, Table 8, MT-4 cells)	EC50 (HIV-1 isolate A98G; Human immunodeficiency virus 1, MT4, read-out: EC50, isolate A98G, Table 8, MT-4 cells)	EC50 (HIV-1 isolate K103N; [1])	EC50 (HIV-1 isolate V108I; Human immunodeficiency virus 1, MT4, read-out: EC50, isolate V1081, Table 8, MT-4 cells)	EC50 (HIV-1 isolate Y181C; [2])	EC50 (HIV-1 WT virus (NL4-3))	EC50 (HIV-1 isolate L74V; Human immunodeficiency virus 1, MT4, read-out: EC50, isolate L74V)	EC50 (HIV-1 isolate A98G; Human immunodeficiency virus 1, MT4, read-out: EC50, isolate A98G)	EC50 (HIV-1 isolate K103N; Human immunodeficiency virus 1, MT4, read-out: EC50, isolate K103N, Table 10, values in μM)	EC50 (HIV-1 isolate V108I; Human immunodeficiency virus 1, MT4, read-out: EC50, isolate V108I)	EC50 (HIV-1 isolate V108I; Human immunodeficiency virus 1, MT4, read-out: EC50, isolate V1081)	EC50 (HIV-1 isolate Y181C; Human immunodeficiency virus 1, MT4, read-out: EC50, isolate Y181C, Table 10, values in μM)
Nc1cccc2c1nc(-c1c(F)cccc1F)n2Cc1c(F)cccc1F [Compound 3300, 4-amino-1-(2,6-difluorobenzyl)-2-(2,6-difluorophenyl)benzimidazole]	280 nM	69%	460 nM	300 nM	1500 nM	> 20 µM	> 20000 nM	6 µM							
CCc1cccc2c1nc(-c1c(F)cccc1F)n2Cc1c(F)cccc1F [Compound 4011, 1-(2,6-difluorobenzyl)-2-(2,6-difluorophenyl)-4-ethylbenzimidazole]						> 20 µM		> 10 µM	820 nM	1500 nM	8000 nM	> 50 µM	> 50000 nM	3000 nM	7.18 µM
